Patent US8507493B2 (AbbVie Inc., priority 2009, dated 2013)
pKi: −log10 of the molar value.

Target: T1, human 11β-HSD1 (Homo sapiens, UniProt P28845)
T1 construct: truncated (24-287aa) human 11β-HSD1 enzyme; made in house; host or cells: E. coli (lysate, not purified)
Experiment: Human 11β-HSD1 enzymatic SPA assay
Format: biochemical
Conditions: truncated (24-287aa) human 11β-HSD1, apparent Ki from IC50 by Cheng-Prusoff
Description: The ability of test compounds to inhibit human 11β-HSD1 enzymatic activity in vitro was evaluated in a Scintillation Proximity Assay (SPA). Tritiated-cortisone substrate, NADPH cofactor and titrated compound were incubated with truncated (24-287aa) human 11β-HSD1 enzyme at room temperature to allow the conversion to cortisol to occur. The reaction was stopped by adding a non-specific 11β-HSD inhibitor, glycyrrhetinic acid. The tritiated cortisol was captured by a mixture of an anti-cortisol monoclonal antibody and SPA beads coated with anti-mouse antibodies. The reaction plate was shaken at room temperature and the radiolabel bound to SPA beads was then measured on a scintillation counter. The 11β-HSD1 assay was carried out in 96-well microtiter plates in a total volume of […]. To start the assay, 188 μL of master mix which contained 75 nM ^3H-cortisone, 100 nM cortisone and 181 μM NADPH was added to the wells. In order to drive the reaction in the 11β-reductase direction, 1 mM glucose-6-phosphate (G-6-P) and 1 U/mL G-6-P dehydrogenase were also added as a NADPH generating system. Solid compound was dissolved in dimethyl sulfoxide to make a 10 mM stock followed by a subsequent 10-fold serial dilution with dimethyl sulfoxide. Each compound solution in dimethyl sulfoxide was 10-fold diluted in Tris/EDTA buffer (pH 7.4). 22 μL of titrated compound were then added in duplicate to the substrate. Reactions were initiated by the addition of 10 μL of 0.1 mg/mL E. coli lysates overexpressing 11β-HSD1 enzyme. After shaking and incubating plates for 30 minutes at room temperature, reactions were stopped by adding 10 μL of 1 mM glycyrrhetinic acid. The product, tritiated cortisol, was captured by adding 10 μL of 1 μM monoclonal mouse anti-cortisol antibodies and 50 μL of SPA beads coated with anti-mouse antibodies. After shaking for 30 minutes, plates were read in a Microbeta scintillation counter. Percent inhibition was calculated based on the background and the maximal signal. Wells that contained substrate without compound or enzyme were used as the background, while the wells that contained substrate and enzyme without any compound were considered as maximal signal. Percent of inhibition of each compound was calculated relative to the maximal signal and IC50 curves were generated. Assuming competitive inhibition the Cheng-Prusoff equation was used to calculate apparent Ki values from the IC50 values. This assay was applied to 11β-HSD2 as well, whereby 6 nM tritiated cortisol and 250 uM NAD^+ were used as substrate and cofactor, respectively.

T1 sequence (P28845 24-287): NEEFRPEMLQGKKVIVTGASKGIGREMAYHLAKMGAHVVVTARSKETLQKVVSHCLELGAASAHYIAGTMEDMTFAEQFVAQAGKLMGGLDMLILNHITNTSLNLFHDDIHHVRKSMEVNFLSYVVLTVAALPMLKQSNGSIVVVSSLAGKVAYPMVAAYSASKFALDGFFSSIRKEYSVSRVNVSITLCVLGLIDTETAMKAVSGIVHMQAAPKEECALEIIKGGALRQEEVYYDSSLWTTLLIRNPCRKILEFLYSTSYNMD

Compound	pKi
Cc1c(Cl)cccc1S(=O)(=O)N1CCC[C@H](C(=NC#N)NC2CCCCC2)C1 [Example 35, (3S)-1-[(3-Chloro-2-methylphenyl)sulfonyl]-N′-cyano-N-cyclohexylpiperidine-3-carboximidamide]	< 6.00
CC(C)(Oc1ccc(Cl)cc1)/C(=N\C#N)N[C@@H]1[C@@H]2C[C@@H]3C[C@H]1C[C@@](C(=O)O)(C3)C2 [Example 36, (E)-4-{[(1E)-2-(4-Chlorophenoxy)-N-cyano-2-methylpropanimidoyl]amino}adamantane-1-carboxylic acid]	6.00 to 7.00
CC(C)(Oc1ccc(Cl)cc1)/C(=N\C#N)N[C@@H]1[C@@H]2C[C@@H]3C[C@H]1C[C@@](C#N)(C3)C2 [Example 37, (1E)-2-(4-Chlorophenoxy)-N′-cyano-N-[(E)-5-cyano-2-adamantyl]-2-methylpropanimidamide]	7.00 to 8.00
CC(C)(Oc1ccc(Cl)cc1)/C(=N\C#N)NC12CC3CC(CC1C3)C2 [Example 38, (1E)-2-(4-Chlorophenoxy)-N′-cyano-N-hexahydro-2,5-methanopentalen-3a(1H)-yl-2-methylpropanimidamide]	7.00 to 8.00
CC(C)(Oc1ccc(Cl)cc1)C(=NC#N)NC1C2CC3CC1CN(C3)C2 (stereo not shown) [Example 39, (1E)-N-[(4s)-1-Azatricyclo[3.3.1.1^3,7]dec-4-yl]-2-(4-chlorophenoxy)-N′-cyano-2-methylpropanimidamide]	< 6.00
CC(C)(Oc1ccc(Cl)cc1)C(=NC#N)NC1CN2CCC1CC2 (stereo not shown) [Example 40, N-1-Azabicyclo[2.2.2]oct-3-yl-2-(4-chlorophenoxy)-N′-cyano-2-methylpropanimidamide]	< 6.00
CC(C)(Oc1ccc(Cl)cc1)C(=NC#N)NC1CCCCCCC1 [Example 41, 2-(4-Chlorophenoxy)-N′-cyano-N-cyclooctyl-2-methylpropanimidamide]	7.00 to 8.00
CC(C)(Oc1ccc(Cl)cc1)C(=NC#N)NC1CC2CCC1C2 (stereo not drawn) [Example 42, N-[exo-Bicyclo[2.2.1]hept-2-yl]-2-(4-chlorophenoxy)-N′-cyano-2-methylpropanimidamide]	6.00 to 7.00
CC(C)(Oc1ccc(Cl)cc1)C(=NC#N)NC12CC3CC(CC(C3)C1)C2 [Example 43]	7.00 to 8.00
CC(C)(Oc1ccc(F)cc1F)C(=NC#N)NC1C2CC3CC1CC(S(C)(=O)=O)(C3)C2 (stereo not shown) [Example 45, (1E)-N′-cyano-2-(2,4-difluorophenoxy)-2-methyl-N-[(E)-5-(methylsulfonyl)adamantan-2-yl]propanimidamide]	≥ 8.00
CC(C)(Oc1ccc(Cl)cc1)C(=NC#N)NC12CCC(C(=O)O)(CC1)CC2 [Example 46, 4-{[2-(4-chlorophenoxy)-N-cyano-2-methylpropanimidoyl]amino}bicyclo[2.2.2]octane-1-carboxylic acid]	< 6.00
CC(C)(Oc1ccc(Cl)cc1)C(=NC#N)NC12CCC(C(N)=O)(CC1)CC2 [Example 47, 4-{[2-(4-chlorophenoxy)-N-cyano-2-methylpropanimidoyl]amino}bicyclo[2.2.2]octane-1-carboxamide]	7.00 to 8.00
COC(=O)C12CC3CC(C1)C(NC(=NC#N)C(C)(C)N1CC4CC(c5ccc(Cl)cc5)C4C1)C(C3)C2 (stereo not drawn) [Example 48, methyl(E)-4-({(1E)-2-[(1R*,5S*,6R*)-6-(4-chlorophenyl)-3-azabicyclo[3.2.0]hept-3-yl]-N-cyano-2-methylpropanimidoyl}amino)adamantane-1-carboxylate]	6.00 to 7.00
CC(C)(Oc1ccccc1)C(=NC#N)NC1C2CC3CC1CC(O)(C3)C2 (stereo not shown) [Example 49, (1E)-N′-cyano-N-[(E)-5-hydroxyadamantan-2-yl]-2-methyl-2-phenoxypropanimidamide]	7.00 to 8.00
CC(C)(Oc1ccccc1)/C(=N\C#N)N[C@@H]1[C@@H]2C[C@@H]3C[C@H]1C[C@@](C(N)=O)(C3)C2 [Example 50, (E)-4-{[(1E)-N-cyano-2-methyl-2-phenoxypropanimidoyl]amino}adamantane-1-carboxamide]	≥ 8.00
CC(C)(Oc1ccc(F)cc1F)C(=NC#N)NC1C2CC3CC1CC(O)(C3)C2 (stereo not shown) [Example 51, (1E)-N′-cyano-2-(2,4-difluorophenoxy)-N-[(E)-5-hydroxyadamantan-2-yl]-2-methylpropanimidamide]	≥ 8.00
CC(C)(Oc1ccc(F)cc1F)/C(=N\C#N)N[C@@H]1[C@@H]2C[C@@H]3C[C@H]1C[C@@](C#N)(C3)C2 [Example 52, (1E)-N′-cyano-N-[(E)-5-cyanoadamantan-2-yl]-2-(2,4-difluorophenoxy)-2-methylpropanimidamide]	7.00 to 8.00

Compound	pKi
CC(C)(Oc1ccc(F)cc1F)C(=NC#N)NC1CC2CCC1C2 (stereo not drawn) [Example 56, N-[(exo)-bicyclo[2.2.1]hept-2-yl]-N-cyano-2-(2,4-difluorophenoxy)-2-methylpropanimidamide]	≥ 8.00
CC(C)(Oc1ccc(F)cc1F)/C(=N\C#N)N[C@@H]1[C@@H]2C[C@@H]3C[C@H]1C[C@@](S(N)(=O)=O)(C3)C2 [Example 57]	7.00 to 8.00
CC(C)(Oc1ccc(Cl)cn1)/C(=N\C#N)N[C@@H]1[C@@H]2C[C@@H]3C[C@H]1C[C@@](O)(C3)C2 [Example 58, (1E)-2-[(5-chloropyridin-2-yl)oxy]-N′-cyano-N-[(E)-5-hydroxyadamantan-2-yl]-2-methylpropanimidamide]	6.00 to 7.00
CC(C)(Oc1ccc(Cl)cn1)C(=NC#N)NC1C2CC3CC1CC(C#N)(C3)C2 (stereo not shown) [Example 59, (1E)-2-[(5-chloropyridin-2-yl)oxy]-N′-cyano-N-[(E)-5-cyanoadamantan-2-yl]-2-methylpropanimidamide]	6.00 to 7.00
CC(C)(Oc1ccc(Cl)cc1F)C(=NC#N)NC12CC3CC(CC(C3)C1)C2 [Example 60]	7.00 to 8.00
CC(C)(Oc1ccc(Cl)cc1F)C(=NC#N)NC1CCCCCCC1 [Example 61, 2-(4-chloro-2-fluorophenoxy)-N′-cyano-N-cyclooctyl-2-methylpropanimidamide]	6.00 to 7.00
CC(C)(Oc1ccc(Cl)cc1F)C(=NC#N)NC1C2CC3CC(C2)CC1C3 (stereo not shown) [Example 62, (1E)-N-[(E)-adamantan-2-yl]-2-(4-chloro-2-fluorophenoxy)-N-cyano-2-methylpropanimidamide]	7.00 to 8.00
COC(=O)C12CC3CC(C1)C(N/C(=N/C#N)C(C)(C)Oc1ccc(Cl)cc1F)C(C3)C2 (stereo not shown) [Example 63, methyl(E)-4-{[(1E)-2-(4-chloro-2-fluorophenoxy)-N-cyano-2-methylpropanimidoyl]amino}adamantane-1-carboxylate]	7.00 to 8.00
CC(C)(Oc1ccccc1)/C(=N\C#N)NC1C2CC3CC1CC(S(C)(=O)=O)(C3)C2 (stereo not shown) [Example 64, (1E)-N-cyano-2-methyl-N-[(E)-5-(methylsulfonyl)adamantan-2-yl]-2-phenoxypropanimidamide]	≥ 8.00
CC(C)(Oc1ccc(F)cc1F)C(=NC#N)NC1CCCCCCC1 [Example 65, N′-cyano-N-cyclooctyl-2-(2,4-difluorophenoxy)-2-methylpropanimidamide]	6.00 to 7.00
CC(C)(Oc1ccc(Cl)cc1F)C(=NC#N)NC1CC2CCC1C2 (stereo not drawn) [Example 66, N-(exo-bicyclo[2.2.1]hept-2-yl)-2-(4-chloro-2-fluorophenoxy)-N-cyano-2-methylpropanimidamide]	6.00 to 7.00
CC(C)(Oc1ccc(Cl)cn1)C(=NC#N)NC1C2CC3CC1CC(S(C)(=O)=O)(C3)C2 (stereo not shown) [Example 67, (1E)-2-[(5-chloropyridin-2-yl)oxy]-N-cyano-2-methyl-N-[(E)-5-(methylsulfonyl)adamantan-2-yl]propanimidamide]	6.00 to 7.00
CC(C)(Oc1ccc(Cl)cn1)C(=NC#N)NC1C2CC3CC1CC(S(N)(=O)=O)(C3)C2 (stereo not shown) [Example 68, (1E)-2-[(5-chloropyridin-2-yl)oxy]-N-cyano-2-methyl-N-[(E)-5-sulfamoyladamantan-2-yl]propanimidamide]	< 6.00
CC(C)(Oc1ccc(F)cc1F)C(=NC#N)NC12CC3CC(CC1C3)C2 [Example 69]	7.00 to 8.00
CC(C)(Oc1ccc(F)cc1F)C(=NC#N)NC1C2CC3CC1CC(C(N)=O)(C3)C2 (stereo not shown) [Example 70, (E)-4-{[(1E)-N-cyano-2-(2,4-difluorophenoxy)-2-methylpropanimidoyl]amino}adamantane-1-carboxamide]	≥ 8.00
CC(C)(Oc1ccc(Cl)cc1F)/C(=N\C#N)NC1CN2CCC1CC2 (stereo not shown) [Example 72, (1E)-N-(1-azabicyclo[2.2.2]oct-3-yl)-2-(4-chloro-2-fluorophenoxy)-N′-cyano-2-methylpropanimidamide]	< 6.00
CC(C)(Oc1ccc(Cl)cc1F)C(=NC#N)NC12CC3CC(CC1C3)C2 [Example 73, 2-(4-chloro-2-fluorophenoxy)-Y-cyano-N-(hexahydro-2,5-methanopentalen-3a(1H)-yl)-2-methylpropanimidamide]	6.00 to 7.00
